The record followed here is patent US6235731A, “Fused imidazopyridine derivatives as antihyperlipidemic agents” (Takeda Chemical Industries, Ltd., priority 1996, dated 2001).

Where a name gives a salt, the structure may show the parent alone. Read-outs that look alike come from different tables or passages of the source.

The test system of one assay is Golden Syrian hamsters. In words: Cholesterol lowering activity in Golden hamster. It is filed as in vivo, Golden Syrian hamster. Conditions: Mesocricetus auratus, po, 96 h, 20 mg/kg/d orally, once daily for 4 days. The procedure: Cholesterol lowering activity in Golden hamster Male Golden Syrian hamsters (110-130 g) were maintained freely on water and a laboratory diet (CE-2, Clea Japan Inc., Tokyo). […] Blood was taken from orbital sinus and plasma total cholesterol and triglyceride were measured an automatic analyzer (Hitachi 7070, Hitachi Ltd., Tokyo) using commercial kits (Wako Pure Chemical Industries, Osaka), and plasma HDL-cholesterol using a commercial kit (Kyowa Medex Co., Ltd., Tokyo) before and after the treatment of compound. Non-HDL cholesterol was calculated by subtracting HDL-cholesterol from total cholesterol. |Non-HDL-C (non-HDL-cholesterol): [total cholesterol]-[HDL-cholesterol] |TG: triglyceride

The next assay relates to Wistar fatty rats. In words: Lipid-lowering effect in Wistar fatty rats. The settings on record: 30 mg/kg/day by stomach tube, 2 weeks, plasma, Mean ± SD (n = 6). It is filed as in vivo, Wistar fatty rat. The method, then: Lipid-lowering effect in Wistar fatty rats
Male Waistar fatty rats were maintained on free access to normal diet (CE-2, Clea Japan) and water. Body weights were measured at 10 weeks of age and the blood was taken from the orbital sinus and determined for plasma total cholesterol (TC), triglyceride (TG), glucose, and HDL-cholesterol (HDL-C) with Wako Pure Chemical and Kyowa Medex kits using an automatic analyzer (Hitachi 7070). Non-HDL-cholesterol (non-HDL-C) was calculated by subtracting HDL-cholesterol from total cholesterol.
The rats were divided into 2 groups (n=6) and 30 mg/kg/day of the test compound (Example 22) in 0.5% methylcellulose solution was administered by a stomach tube to one of the groups once daily for 2 weeks (test group). 0.5% Methylcellulose solution only was similarly administered to the other group (control group). On day 14, body weights were measured again and the blood was taken from the orbital sinus and determined for plasma total cholesterol, HDL-cholesterol, triglyceride, and glucose in the same manner as before.

In the next assay the test system is HepG2 cells. In words: Increase in LDL-binding to HepG2 cells. It is filed as cell-based. Conditions: 10 μM test compound, 20 hours, specific human [125I]LDL binding, normalized by protein, read-out: LDL binding (% of control). The procedure: Increase in LDL-binding to HepG2 cells LDL-binding was measured according to the method of J. L. Goldstein. HepG2 cells were purchased from ATCC (American type culture collection) and seeded in 6-well plate with collagen coating (Sumitomo Bakelite), and cultured in Eagle's minimum essential medium (MEM) containing 10%-fetal bovine serum at 37° C. for 4 days. […] After washing with phosphate buffered saline cells were incubated with MEM containing 25 mM-HEPES and 1%-bovine serum albumin (fatty acid free) in the presence of human [^125 I]LDL (4 μg/ml) at 6° C. for 2 hours. After washing cells bound [^125 I]LDL was dissociated with dextran sulfate and the radioactivity was measured (total binding). [^125 I]LDL binding to cells was also measured in the presence of LDL (300 μg/ml) as a non-specific binding (NSB). Specific [^125 I]LDL-binding was calculated by subtracting NSB from total binding and was normalized by protein content measured by the method of lowry. Data was expressed as percentage of the control.

The mark [1] stands for this setting: plasma triglyceride, read-out: TG (% of control).
Setting [2] is: plasma, [total cholesterol]-[HDL-cholesterol], read-out: Non-HDL-C (% of control).

Consider `O=C(NCC1CCN(CCCc2ccccc2)CC1)C1=Cc2cnc3cccc(n23)S1` [Example 22, N-[1-(3-phenylpropan-1-yl)piperidin-4-ylmethyl]-5-thia-1,8b-diazaacenaphthylene-4-carboxamide Dihydrochloride], for which the response vs control in vivo at 20 mg/kg worked out at 62.3% in the assay with Golden Syrian hamsters (setting [1]) and 58.8% with Golden Syrian hamsters (setting [2]). In addition, the “TG” value in the assay with Wistar fatty rats (* P < 0.05 vs control group (324.7 ± 74.2)) was 258.3 ± 38.4 mg/dL. The “Glucose” value in the assay on Wistar fatty rats (* P < 0.05 vs control group (366.8 ± 72.0)) worked out at 268.2 ± 81.9 mg/dL. In addition, the “Non-HDL-C” value in the assay on Wistar fatty rats (** P < 0.01 vs control group (39.9 ± 3.7)) is 30.0 ± 5.2 mg/dL. For the same molecule, the activity at 10 µM in the assay with HepG2 cells is 126%.

Consider `O=C(NC1CCN(CCCc2ccccc2)CC1)C1=Cc2cnc3cccc(n23)S1` [Example 36, N-[1-(3-phenylpropan-1-yl)piperidin-4-yl]-5-thia-1,8b-diazaacenaphthylene-4-carboxamide Dihydrochloride], for which the response vs control in vivo at 20 mg/kg in the assay with Golden Syrian hamsters (setting [1]) was determined as 74.7%; with Golden Syrian hamsters (setting [2]) it was 61.9%. Further, the activity at 10 µM in the assay with HepG2 cells was 218%.

For `O=C(NCC1CCN(CCCc2ccc(F)cc2F)CC1)C1=Cc2cnc3cccc(n23)S1` [Example 76, N-[1-(3-(2,4-difluorophenyl)propan-1-yl)piperidin-4-ylmethyl]-5-thia-1,8b-diazaacenaphthylene-4-carboxamide Dihydrochloride], the response vs control in vivo at 20 mg/kg came to 58.1% with Golden Syrian hamsters (setting [1]) and 74% in the assay on Golden Syrian hamsters (setting [2]). Further, the activity at 10 µM in the assay with HepG2 cells is 282%.

On to `O=C(NCC1CCN(C[C@@H]2COc3ccccc3O2)CC1)C1=Cc2cnc3cccc(n23)S1` [Example 1, (R)-N-[1-(1,4-benzodioxan-2-ylmethyl)piperidin-4-ylmethyl]-5-thia-1,8b-diazaacenaphthylene-4-carboxamide dihydrochloride], for which the response vs control in vivo at 20 mg/kg was determined as 78.4% in the assay with Golden Syrian hamsters (setting [1]) and 68.6% with Golden Syrian hamsters (setting [2]). In addition, the activity at 10 µM in the assay on HepG2 cells stood at 203%.

Turning to `O=C(NCCCCN1CCC(Cc2ccccc2)CC1)C1=Cc2cnc3cccc(n23)S1` [Example 28, N-[4-(4-benzylpiperidin-1-yl)butan-1-yl]-5-thia-1,8b-diazaacenaphthylene-4-carboxamide Dihydrochloride], the response vs control in vivo at 20 mg/kg in the assay with Golden Syrian hamsters (setting [1]) came to 61.3%; in the assay on Golden Syrian hamsters (setting [2]) it was 62.9%. Moreover, in the assay with HepG2 cells, the activity at 10 µM was found to be 194%.

Consider `O=C(NCC1CCN(CCCc2ccccc2F)CC1)C1=Cc2cnc3cccc(n23)S1` [Example 67, N-[1-(3-(2-fluorophenyl)propan-1-yl)piperidin-4-ylmethyl]-5-thia-1,8b-diazaacenaphthylene-4-carboxamide Dihydrochloride], for which the response vs control in vivo at 20 mg/kg in the assay with Golden Syrian hamsters (setting [1]) amounted to 67.9%; in the assay with Golden Syrian hamsters (setting [2]), 62%. The activity at 10 µM in the assay with HepG2 cells came to 162%.

As for `O=C(C=CC1=Cc2cnc3cccc(n23)S1)NCC1CCN(CCCc2ccccc2)CC1` [Example 9, N-[1-(3-phenylpropan-1-yl)piperidin-4-ylmethyl]-3-(5-thia-1,8b-diazaacenaphthylen-4-yl)acrylamide dihydrochloride], the response vs control in vivo at 20 mg/kg in the assay on Golden Syrian hamsters (setting [1]) came to 67%; in the assay on Golden Syrian hamsters (setting [2]), 62.3%. The activity at 10 µM with HepG2 cells was 247%.
